Reference: PubChem BioAssay (NCI)
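GI50 is the concentration that inhibits growth by half. The concentration for full growth arrest is given as TGI.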

Columns and labels:
Experiment in all cases: NCI tumour cell line growth inhibition, 384-well format
CAKI-1 renal = test system: CAKI-1 renal
HCC-2998 colon = test system: HCC-2998 colon
HCT-15 colon = test system: HCT-15 colon
HL-60(TB) leukemia = test system: HL-60(TB) leukemia
HOP-62 NSCLC = test system: HOP-62 NSCLC
LOX IMVI melanoma = test system: LOX IMVI melanoma
NCI-H322M lung = test system: NCI-H322M lung
NCI-H460 NSCLC = test system: NCI-H460 NSCLC
NCI-H522 lung = test system: NCI-H522 lung
PC-3 prostate = test system: PC-3 prostate
RXF 393 renal = test system: RXF 393 renal
SF-268 CNS = test system: SF-268 CNS
SF-539 CNS = test system: SF-539 CNS

SMILES | GI50 (CAKI-1 renal) | TGI (CAKI-1 renal) | GI50 (HCC-2998 colon) | TGI (HCC-2998 colon) | GI50 (HCT-15 colon) | TGI (HCT-15 colon) | GI50 (HL-60(TB) leukemia) | TGI (HL-60(TB) leukemia) | GI50 (HOP-62 NSCLC) | TGI (HOP-62 NSCLC) | GI50 (LOX IMVI melanoma) | TGI (LOX IMVI melanoma) | GI50 (NCI-H322M lung) | TGI (NCI-H322M lung) | GI50 (NCI-H460 NSCLC) | TGI (NCI-H460 NSCLC) | GI50 (NCI-H522 lung) | TGI (NCI-H522 lung) | GI50 (PC-3 prostate) | TGI (PC-3 prostate) | further results
Cc1cc2c(cc1C)NC1=C(N2)OC(c2c3ccccc3cc3ccccc23)C1=O (configuration not stated) | 750 nM | 5690 nM | 688 nM | 1570 nM | 261 nM | 711 nM | 212 nM | 363 nM | 325 nM | 825 nM | 361 nM | 1350 nM | 1220 nM | 7460 nM | 260 nM | 654 nM | 192 nM | 385 nM | 422 nM | 1440 nM | GI50 (RXF 393 renal): 285 nM; TGI (RXF 393 renal): 513 nM; GI50 (SF-268 CNS): 354 nM; TGI (SF-268 CNS): 1050 nM; GI50 (SF-539 CNS): 170 nM; TGI (SF-539 CNS): 380 nM
O=C(O)c1ccc(CN2CCC(CN[C@@H]3C[C@H]3c3ccccc3)CC2)cc1 | > 100000 nM | > 100000 nM | > 100000 nM | > 100000 nM | > 100000 nM | > 100000 nM | > 100000 nM | > 100000 nM | > 100000 nM | > 100000 nM | > 100000 nM | > 100000 nM | > 100000 nM | > 100000 nM | > 100000 nM | > 100000 nM | > 100000 nM | > 100000 nM | > 100000 nM | > 100000 nM | GI50 (RXF 393 renal): > 100000 nM; TGI (RXF 393 renal): > 100000 nM; GI50 (SF-268 CNS): > 100000 nM; TGI (SF-268 CNS): > 100000 nM; GI50 (SF-539 CNS): > 100000 nM; TGI (SF-539 CNS): > 100000 nM
